# Target: Isoform Bcl-X(L) of Bcl-2-like protein 1 (Bcl-xL) (Homo sapiens, UniProt Q07817)
# Assay: DELFIA Assay
# From the text: In order to figure whether these compounds were capable of displacing the interactions between Bci-XL and it's pro-apoptotic counterparts, it was testes in a heterogeneous lanthanide-based assay that have recently developed based on the DELFIA (dissociation enhanced lanthanide fluoro-immuno assay)technology (Perkin-Elmer).
# Sequence of Isoform Bcl-X(L) of Bcl-2-like protein 1 (Bcl-xL) (Q07817 whole entry G70A, canonical isoform): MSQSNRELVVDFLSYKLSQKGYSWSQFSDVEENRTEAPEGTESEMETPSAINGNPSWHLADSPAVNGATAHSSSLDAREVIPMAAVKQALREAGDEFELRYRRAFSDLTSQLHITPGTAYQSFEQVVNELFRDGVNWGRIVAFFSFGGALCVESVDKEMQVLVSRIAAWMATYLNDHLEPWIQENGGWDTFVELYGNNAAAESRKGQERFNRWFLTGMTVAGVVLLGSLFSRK
IC50 [µM],Kd [µM],Compound
5.7,,O=C(O)c1ccccc1C(=O)c1ccc(Sc2ccccc2)c([N+](=O)[O-])c1 [BI-21C7]
3.3,,Cc1csc(NC(=O)c2ccccc2C(=O)O)c1-c1nc2ccccc2s1 [BI-21C4]
5.1,19.8,N#Cc1c(-c2ccc3c(c2)OCO3)cc(-c2ccccc2O)[nH]c1=O [BI-21C5]
0.5,,O=C(O)c1ccccc1C(=O)c1ccc(Sc2ccc(Cl)cc2)c([N+](=O)[O-])c1 [BI-21C6]
